Laboratory results as given in BindingDB's records for doi:10.1016/j.bmcl.2007.12.029 (Merck Research Laboratories, 2008).

Experiment: Antagonist activity at CCR2 receptor in human monocytes assessed as inhibition of MCP1-mediated chemotaxis

SMILES | IC50
CC(C)(O)[C@]1(C(=O)NCc2cc(C(F)(F)F)cc(C(F)(F)F)c2)CC[C@@H](N2CCC(c3cncnc3)CC2)C1 [(1S,3R)-N-(3,5-bis(trifluoromethyl)benzyl)-1-(2-hydroxypropan-2-yl)-3-(4-(pyrimidin-5-yl)piperidin-1-yl)cyclopentanecarboxamide] | 2 nM
CC(C)[C@]1(C(=O)NCc2cc(C(F)(F)F)cc(C(F)(F)F)c2)CC[C@@H](N2CCC(c3cncnc3)CC2)C1 [N-(3,5-bis(trifluoromethyl)benzyl)-1-isopropyl-3-(4-(pyrimidin-5-yl)piperidin-1-yl)cyclopentanecarboxamide] | 2 nM
